The source of these data is US9399649B2, “Compounds for treating spinal muscular atrophy” (PTC Therapeutics Inc., priority 2012, dated 2016).

The test relates to human SMN1 minigene full length and Δ7 mRNA. As to the kind of experiment: Human SMN1 minigene mRNA end-point semi-quantitative RT-PCR splicing assay in cultured cells. It is filed as cell-based. The settings on record: HEK293H cells transfected with SMN1-A minigene, increasing concentrations, 7 hours, FIG. 17. From the text:
The RT-PCR assay is used to visualize and quantify the levels of the human SMN1 minigene full length and Δ7 mRNA in primary cells and cell lines expressing the human SMN1 minigene construct treated with a test compound.
Using the procedure for the preparation of the SMN2 minigene construct described in Biological Example 1, the SMN1 version of the minigene is generated by changing the sixth nucleotide of exon 7 (a thymine residue) of the SMN2-A minigene construct to cytosine using site directed mutagenesis. Thus, similar to the SMN2-A minigene construct, the SMN1 minigene construct has a single adenine residue inserted after nucleic residue 48 of exon 7. The SMN1 minigene construct is referred to as SMN1-A.
HEK293H cells (10,000 cells/well/199 μL) were transfected, using FuGENE-6 reagent, in a 96-well plate with 15 ng of the SMN1-A minigene reporter plasmid per well. Cells were incubated for 24 hours following transfection. Test compounds were serially diluted 3.16-fold in 100% DMSO to generate a 7-point concentration curve. A solution of test compound (1 μL, 200× in DMSO) was added to each test well. 1 μL DMSO was added to each control well. The plate was incubated for 7 hours in a cell culture incubator (37° C., 5% CO2, 100% relative humidity). The cells were then lysed in Cells-To-Ct lysis buffer and the lysates were stored at 80° C.
Two SMN spliced mRNA are generated from the SMN1 minigene. The term “SMN1 minigene FL” refers to the first spliced product containing exon 7, corresponding to full length SMN1 mRNA. The term “SMN1 minigene A7” refers to the second product lacking exon 7.
SMN minigene FL and Δ7 mRNA are amplified using the primers in Table 11. Primer SMN Forward C (SEQ ID NO. 11) hybridizes to a nucleotide sequence in exon 6 (nucleotide 43 to nucleotide 63), primer SMN Reverse A (SEQ ID NO. 2) hybridizes to a nucleotide sequence in the coding sequence of Firefly luciferase. The combination of these two oligonucleotides detects only SMN1 or SMN2 minigenes (RT-PCR) and will not detect endogenous SMN1 or SMN2 genes. Since the SMA patient cells used in Example 16 were transfected with only the human SMN1 minigene, RT-PCR can visualize and quantify only SMN1 minigene full-length and SMN1 minigene Δ7 mRNA.
To synthesize cDNA, 5 μL of lysate, 4 μL of 5× iScript reaction mix, 1 μL of reverse transcriptase, and 10 μL of water are combined and incubated 5 min at 25° C. followed by 30 min at 42° C., followed by 5 min at 85° C. The cDNA solution is stored at −20° C.
To perform endpoint PCR, 5 μL of cDNA, 0.2 μL of 100 μM forward primer, 0.2 μL of 100 μM reverse primer, and 22.5 μL of polymerase super mix are combined in a 96 well semiskirted PCR plate. PCR is carried out at the following temperatures for the indicated time: Step 1: 94° C. (2 min), Step 2: 94° C. […]

On to `Cc1cn2cc(-c3cc4ccc(N5CCN(C)CC5)cc4c(=O)o3)nc2c(C)n1` [Cpd 65, 3-(6,8-dimethylimidazo[1,2-a]pyrazin-2-yl)-7-(4-methylpiperazin-1-yl)-1H-isochromen-1-one], for which the “SMN1 minigene FL mRNA (gel band)” value is listed as “progressively more SMN1 minigene FL mRNA” and the “SMN1 minigene Δ7 mRNA (gel band)” value is reported as “less SMN1 minigene Δ7 mRNA”.

Consider `Cc1cn2cc(-c3cc4ccc(N5CCN6CCC[C@H]6C5)cc4c(=O)o3)nc2c(C)n1` [Cpd 69, 3-(6,8-dimethylimidazo[1,2-a]pyrazin-2-yl)-7-[(8aS)-hexahydropyrrolo[1,2-a]pyrazin-2(1H)-yl]-1H-isochromen-1-one], for which the “SMN1 minigene FL mRNA (gel band)” value is “progressively more SMN1 minigene FL mRNA” and the “SMN1 minigene Δ7 mRNA (gel band)” value is “less SMN1 minigene Δ7 mRNA”.
